Numbers after ± are expanded uncertainties.
What was measured:
[1] = refractive index (Na D-line) (dimensionless); conditions: 101.33 kPa, Liquid, Standard Abbe refractometry
[2] = Liquid; for mass density: 293.15 K, 101.33 kPa

SMILES	refractive index ([1]; 293.15 K)	mass density [2]	also measured
Cc1ccccc1C [1,2-dimethylbenzene]	1.5055 ± 0.0007	880.1 ± 1.3 kg/m3	vapor or sublimation pressure ([2]; 415.35 K): 95.1 ± 3 kPa
Cc1cccc(C)c1 [1,3-dimethylbenzene]	1.4972 ± 0.0007	864.4 ± 1.2 kg/m3	vapor or sublimation pressure ([2]; 410.25 K): 95.1 ± 3 kPa
Cc1ccc(C)cc1 [1,4-dimethylbenzene]	1.4858 ± 0.0007	861 ± 1.2 kg/m3	vapor or sublimation pressure ([2]; 408.65 K): 95.1 ± 3 kPa
Cc1ccccc1O [2-methylphenol]	1.5468 ± 0.0007	1046 ± 1.6 kg/m3	vapor or sublimation pressure ([2]; 463.65 K): 95.1 ± 3 kPa
Cc1cccc(O)c1 [3-methylphenol]	1.5414 ± 0.0007	1034 ± 1.5 kg/m3	vapor or sublimation pressure ([2]; 473.35 K): 95.1 ± 3 kPa
Cc1ccc(O)cc1 [4-methylphenol]			refractive index ([1]; 298.15 K): 1.5391 ± 0.0007; vapor or sublimation pressure ([2]; 475.35 K): 95.1 ± 3 kPa
CN(C)C=O [dimethylformamide]	1.4305 ± 0.0007	948.7 ± 1.4 kg/m3	vapor or sublimation pressure ([2]; 420.95 K): 95.1 ± 3 kPa

Reference: the NIST ThermoML archive (doi:10.1016/j.fluid.2008.01.020)
